Read-outs that look alike come from different tables or passages of the source.
Experiments:
[1] = Drug recovery after hot-melt processing into transmucosal preparations; assay type: physicochemical; details: after processing the drug into TMP systems
Protocol: The formulas are listed below. The PEO, PVP and Vitamin E TPGS were dry blended in a V-blender. The THC and the THC-HS were solubilized in the PEG 400 and immediately sprayed into the dry blend with continuous mixing. The resulting blend was then hot-melt extruded into films. The highest extrusion temperature was 150° C. and residence time in the barrel was approximately 2 minutes. The resulting transmucosal preparations were approximately 1.0 mm in thickness and both contained over 98% of the original theoretical percent of drug within the formulation.
It has been reported that THC is very unstable at room temperature and its primary degradant is cannabinol (CBN). It has also been reported that THC instability is accelerated by ultraviolet light and heat.

[2] = Klucel matrix film, cited from earlier work
[3] = Solubility in polyethylene glycol 400; details: PEG 400
[4] = Diffusion study of transmucosal films in modified Franz cells; details: rabbit mucosa; Brij 3.0% buffer pH 7.2; FIG. 1
Protocol: Diffusion studies of the transmucosal preparation films in Examples #5 and #6 were performed using a PermeGear, Model V9, 9 Cell System. Modified Franz cells were employed using thinly-excised rabbit mucosa as the diffusion membrane. Diffusion media was a diffusion buffer system of Brij® 3.0% (pH=7.2) which was determined by previous testing.

CCCCCc1cc(O)c2c(c1)OC(C)(C)[C@@H]1CCC(C)=C[C@@H]21 [THC, Tetrahydrocannabinol]
THC recovered after processing into THC transmucosal matrix patch systems [1]: over 98%
THC degradation within the hot-mold matrix ([2]; processed at 120° C. for 20 minutes): 1.8%
THC degradation within the hot-mold matrix ([2]; processed at 160° C. for 20 minutes): 2.3%
THC degradation within the hot-mold matrix ([2]; processed at 200° C. for 20 minutes): 4.3%
solubility in polyethylene glycol 400 [3]: > 20%

Tetrahydrocannabinol Hemisuccinate [THC-HS]
duration of controlled diffusion [4]: over 22 hours
release behaviour [4]: more immediate release

Reference: patent US20060257463A1, “Transmucosal delivery of cannabinoids” (UNIVERSITY OF MISSISSIPPI, priority 2002, published 2006)
